In ChEMBL document CHEMBL1201861, “Genomics of Drug Sensitity in Cancer screening data, Wellcome Trust Sanger Institute”:

Legend:
Assay in all cases: cells
COLO-800 = assay type: functional, cell-based, Homo sapiens; settings: Homo sapiens, COLO-800;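 further: growth inhibition of COLO-800 cells, read out with a cell viability assay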
COLO-829 = assay type: functional, cell-based, Homo sapiens; settings: Homo sapiens, COLO-829
CTV-1 = assay type: functional, cell-based, Homo sapiens; settings: Homo sapiens, CTV-1;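 further: growth inhibition of the cell line, read out with a cell viability assay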
D-247MG = assay type: functional, cell-based; settings: Homo sapiens
D283 Med = assay type: functional, cell-based, Homo sapiens; settings: Homo sapiens, D283 Med
DEL = assay type: functional, cell-based, Homo sapiens; settings: Homo sapiens, DEL;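 further: growth inhibition of the human DEL cell line, read out with a cell viability assay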
DMS-114 = assay type: functional, cell-based, Homo sapiens; settings: Homo sapiens, DMS-114
DOHH-2 = assay type: functional, cell-based, Homo sapiens; settings: Homo sapiens, DOHH-2;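 further: growth inhibition of human DOHH-2 cells, read out with a cell viability assay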
DU-4475 = assay type: functional, cell-based, Homo sapiens; settings: Homo sapiens, DU-4475
EW-13 = assay type: functional, cell-based, Homo sapiens; settings: Homo sapiens, EW-13; read-out: IC50;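 further: growth inhibition of EW-13 cells, read out with a cell viability assay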
GAK = assay type: functional, cell-based, Homo sapiens; settings: Homo sapiens, GAK;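 further: cell growth inhibition read out by a cell viability assay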
HCE-4 = assay type: functional, cell-based; settings: Homo sapiens;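 further: cell viability assay measuring inhibition of growth in the human HCE-4 cell line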
HEL = assay type: functional, cell-based, Homo sapiens; settings: Homo sapiens, HEL;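 further: growth inhibition of HEL cells, read out with a cell viability assay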
IST-SL1 = assay type: functional, cell-based, Homo sapiens; settings: Homo sapiens, IST-SL1;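 further: growth inhibition of human IST-SL1 cells, read out with a cell viability assay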
J-RT3-T3-5 = assay type: functional, cell-based, Homo sapiens; settings: Homo sapiens, J-RT3-T3-5;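 further: cell viability assay measuring growth inhibition of human J-RT3-T3-5 cells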
KM-H2 = assay type: functional, cell-based, Homo sapiens; settings: Homo sapiens, KM-H2;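 further: growth inhibition of KM-H2 cells, read out by a cell viability assay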
L-428 = assay type: functional, cell-based, Homo sapiens; settings: Homo sapiens, L-428
LS-411N = assay type: functional, cell-based, Homo sapiens; settings: Homo sapiens, LS-411N
LXF-289 cell line = assay type: functional, cell-based; settings: Homo sapiens
NB10 = assay type: functional, cell-based, Homo sapiens; settings: Homo sapiens, NB10;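 further: growth inhibition of NB10 cells, read out by a cell viability assay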
NCI-H1092 = assay type: functional, cell-based, Homo sapiens; settings: Homo sapiens, NCI-H1092;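 further: cell growth inhibition measured with a cell viability assay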
NCI-H1770 = assay type: functional, cell-based, Homo sapiens; settings: Homo sapiens, NCI-H1770;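 further: growth inhibition of NCI-H1770 cells determined with a viability readout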
NCI-H526 = assay type: functional, cell-based, Homo sapiens; settings: Homo sapiens, NCI-H526;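 further: growth inhibition of the human NCI-H526 cell line, measured by a cell viability assay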
NCI-H69 = assay type: functional, cell-based, Homo sapiens; settings: Homo sapiens, NCI-H69;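 further: growth inhibition of the cell line, read out with a cell viability assay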
NCI-N87 = assay type: functional, cell-based; settings: Homo sapiens;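 further: growth inhibition of human NCI-N87 cells, read out with a cell viability assay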
SNU1 = assay type: functional, cell-based, Homo sapiens; settings: Homo sapiens, SNU1;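 further: growth inhibition of human NCI-SNU-1 cells, measured with a cell viability assay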
SNU-5 = assay type: functional, cell-based, Homo sapiens; settings: Homo sapiens, SNU-5;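 further: cell viability readout used to measure growth inhibition in human NCI-SNU-5 cells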
NEC8 = assay type: functional, cell-based, Homo sapiens; settings: Homo sapiens, NEC8;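 further: growth inhibition of human NEC8 cells, read out by a cell viability assay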
NKM-1 = assay type: functional, cell-based, Homo sapiens; settings: Homo sapiens, NKM-1;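 further: growth inhibition of NKM-1 cells, read out with a cell viability assay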
NOMO-1 = assay type: functional, cell-based, Homo sapiens; settings: Homo sapiens, NOMO-1;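 further: growth inhibition of human NOMO-1 cells measured by a cell viability assay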
OVCAR-4 = assay type: functional, cell-based, Homo sapiens; settings: Homo sapiens, OVCAR-4;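 further: growth inhibition of human OVCAR-4 cells, measured with a cell viability assay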
PSN1 = assay type: functional, cell-based, Homo sapiens; settings: Homo sapiens, PSN1;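 further: suppression of growth of human PSN1 cells, read out by a cell viability assay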
RKO = assay type: functional, cell-based, Homo sapiens; settings: Homo sapiens, RKO;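 further: growth inhibition of human RKO cells, read out with a cell viability assay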
RS4-11 = assay type: functional, cell-based, Homo sapiens; settings: Homo sapiens, RS4-11;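 further: growth inhibition of RS4-11 cells, read out by a cell viability assay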
SK-NEP-1 = assay type: functional, cell-based, Homo sapiens; settings: Homo sapiens, SK-NEP-1;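 further: growth inhibition of human SK-NEP-1 cells, read out by a cell viability assay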
SNU-C2B = assay type: functional, cell-based; settings: Homo sapiens;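 further: cell viability readout used to measure compound-driven suppression of SNU-C2B cell proliferation, IC50 marking half-maximal growth inhibition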
A498 = assay type: functional, cell-based, Homo sapiens; settings: Homo sapiens, A498;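 further: growth inhibition of human A498 cells, read out with a cell viability assay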
A704 = assay type: functional, cell-based; settings: Homo sapiens;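 further: growth inhibition of human A704 cells, read out with a cell viability assay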
ATN-1 = assay type: functional, cell-based, Homo sapiens; settings: Homo sapiens, ATN-1;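 further: growth inhibition of human ATN-1 cells, read out with a cell viability assay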
BT-474 = assay type: functional, cell-based, Homo sapiens; settings: Homo sapiens, BT-474
Becker = assay type: functional, cell-based, Homo sapiens; settings: Homo sapiens, Becker;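 further: growth inhibition of Becker cells, read out with a cell viability assay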
C8166 = assay type: functional, cell-based, Homo sapiens; settings: Homo sapiens, C8166;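 further: growth inhibition of human C8166 cells measured by a cell viability assay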
TE-8 = assay type: functional, cell-based, Homo sapiens; settings: Homo sapiens, TE-8;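 further: growth inhibition of TE-8 cells, measured with a cell viability readout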
TK-10 = assay type: functional, cell-based, Homo sapiens; settings: Homo sapiens, TK-10;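 further: growth inhibition of TK-10 cells, read out in a cell viability assay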
U-266 = assay type: functional, cell-based, Homo sapiens; settings: Homo sapiens, U-266
U-87 MG = assay type: functional, cell-based, Homo sapiens, U-87MG ATCC; settings: Homo sapiens, U-87 MG;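 further: growth inhibition of the cells measured with a viability assay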
UACC-257 = assay type: functional, cell-based, Homo sapiens; settings: Homo sapiens, UACC-257
CGTH-W-1 = assay type: functional, cell-based, Homo sapiens; settings: Homo sapiens, CGTH-W-1;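 further: growth inhibition of human CGTH-W-1 cells measured by cell viability assay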
COLO-320-HSR = assay type: functional, cell-based, Homo sapiens; settings: Homo sapiens, COLO-320-HSR;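 further: growth inhibition of COLO-320-HSR cells, determined with a cell viability assay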
COLO-684 = assay type: functional, cell-based, Homo sapiens; settings: Homo sapiens, COLO-684

SMILES: C[C@@H](Oc1cc(-c2cnn(C3CCNCC3)c2)cnc1N)c1c(Cl)ccc(F)c1Cl [CRIZOTINIB]
- IC50 (COLO-800): > 2 µM
- IC50 (COLO-829): > 2 µM
- IC50 (CTV-1): 0.596 µM
- IC50 (D-247MG): > 2 µM
- IC50 (D283 Med): > 2 µM
- IC50 (DEL): 0.37 µM
- IC50 (DMS-114): > 2 µM
- IC50 (DOHH-2): > 2 µM
- IC50 (DU-4475): > 2 µM
- IC50 (EW-13): > 2 µM
- IC50 (HCE-4): > 2 µM
- IC50 (HEL): > 2 µM
- IC50 (IST-SL1): > 2 µM
- IC50 (J-RT3-T3-5): > 2 µM
- IC50 (KM-H2): > 2 µM
- IC50 (L-428): > 2 µM
- IC50 (LS-411N): > 2 µM
- IC50 (LXF-289 cell line): > 2 µM
- IC50 (NB10): > 2 µM
- IC50 (NCI-H1092): > 2 µM
- IC50 (NCI-H1770): > 2 µM
- IC50 (NCI-H526): > 2 µM
- IC50 (NCI-H69): > 2 µM
- IC50 (NCI-N87): > 2 µM
- IC50 (SNU1): > 2 µM
- IC50 (SNU-5): 0.106 µM
- IC50 (NEC8): > 2 µM
- IC50 (NKM-1): > 2 µM
- IC50 (NOMO-1): > 2 µM
- IC50 (OVCAR-4): > 2 µM
- IC50 (PSN1): > 2 µM
- IC50 (RKO): > 2 µM
- IC50 (RS4-11): > 2 µM
- IC50 (SK-NEP-1): > 2 µM
- IC50 (SNU-C2B): > 2 µM
- IC50 (A498): > 2 µM
- IC50 (A704): > 2 µM
- IC50 (ATN-1): > 2 µM
- IC50 (BT-474): > 2 µM
- IC50 (Becker): > 2 µM
- IC50 (C8166): > 2 µM
- IC50 (TE-8): > 2 µM
- IC50 (TK-10): > 2 µM
- IC50 (U-266): > 2 µM
- IC50 (U-87 MG): > 2 µM
- IC50 (UACC-257): > 2 µM
- IC50 (CGTH-W-1): > 2 µM
- IC50 (COLO-320-HSR): > 2 µM
- IC50 (COLO-684): > 2 µM

SMILES: NC(=O)Nc1cc(-c2cccc(F)c2)sc1C(=O)N[C@H]1CCCNC1 [AZD-7762]
- IC50 (COLO-800): 0.603 µM
- IC50 (COLO-829): 0.298 µM
- IC50 (CTV-1): 0.039 µM
- IC50 (D-247MG): > 2 µM
- IC50 (D283 Med): 0.137 µM
- IC50 (DEL): 0.0459 µM
- IC50 (DMS-114): > 2 µM
- IC50 (DOHH-2): 0.131 µM
- IC50 (DU-4475): 0.349 µM
- IC50 (EW-13): > 2 µM
- IC50 (GAK): 1.05 µM
- IC50 (HCE-4): 0.97 µM
- IC50 (HEL): 0.225 µM
- IC50 (IST-SL1): 0.628 µM
- IC50 (J-RT3-T3-5): 0.267 µM
- IC50 (KM-H2): 1.22 µM
- IC50 (L-428): > 2 µM
- IC50 (LS-411N): 0.376 µM
- IC50 (LXF-289 cell line): 0.676 µM
- IC50 (NB10): 0.591 µM
- IC50 (NCI-H1092): > 2 µM
- IC50 (NCI-H1770): > 2 µM
- IC50 (NCI-H526): 1.54 µM
- IC50 (NCI-H69): > 2 µM
- IC50 (NCI-N87): 0.846 µM
- IC50 (SNU1): 0.271 µM
- IC50 (SNU-5): > 2 µM
- IC50 (NEC8): 0.042 µM
- IC50 (NKM-1): < 0.00781 µM
- IC50 (NOMO-1): 0.0612 µM
- IC50 (OVCAR-4): 0.32 µM
- IC50 (PSN1): 0.591 µM
- IC50 (RKO): 0.52 µM
- IC50 (RS4-11): 0.203 µM
- IC50 (SK-NEP-1): 0.464 µM
- IC50 (SNU-C2B): 0.281 µM
- IC50 (A498): 1.73 µM
- IC50 (A704): 0.539 µM
- IC50 (ATN-1): 0.0342 µM
- IC50 (BT-474): > 2 µM
- IC50 (Becker): 0.658 µM
- IC50 (C8166): 1.91 µM
- IC50 (TE-8): 1.12 µM
- IC50 (TK-10): 0.379 µM
- IC50 (U-266): 0.763 µM
- IC50 (U-87 MG): 1.21 µM
- IC50 (UACC-257): > 2 µM
- IC50 (CGTH-W-1): 0.0142 µM
- IC50 (COLO-320-HSR): 1 µM
- IC50 (COLO-684): 0.294 µM

SMILES: NC(=O)c1ccc(N(C(N)=O)c2c(F)cccc2F)nc1-c1ccc(F)cc1F [VX-702]
- IC50 (COLO-800): > 2 µM
- IC50 (COLO-829): > 2 µM
- IC50 (CTV-1): 0.184 µM
- IC50 (D-247MG): > 2 µM
- IC50 (D283 Med): > 2 µM
- IC50 (DEL): > 2 µM
- IC50 (DMS-114): > 2 µM
- IC50 (DOHH-2): > 2 µM
- IC50 (DU-4475): > 2 µM
- IC50 (EW-13): > 2 µM
- IC50 (GAK): > 2 µM
- IC50 (HCE-4): > 2 µM
- IC50 (HEL): > 2 µM
- IC50 (IST-SL1): > 2 µM
- IC50 (J-RT3-T3-5): > 2 µM
- IC50 (KM-H2): > 2 µM
- IC50 (L-428): > 2 µM
- IC50 (LS-411N): > 2 µM
- IC50 (LXF-289 cell line): > 2 µM
- IC50 (NB10): > 2 µM
- IC50 (NCI-H1092): > 2 µM
- IC50 (NCI-H1770): > 2 µM
- IC50 (NCI-H526): > 2 µM
- IC50 (NCI-H69): 0.0994 µM
- IC50 (NCI-N87): > 2 µM
- IC50 (SNU1): > 2 µM
- IC50 (SNU-5): > 2 µM
- IC50 (NEC8): > 2 µM
- IC50 (NKM-1): > 2 µM
- IC50 (NOMO-1): > 2 µM
- IC50 (OVCAR-4): > 2 µM
- IC50 (PSN1): > 2 µM
- IC50 (RKO): > 2 µM
- IC50 (RS4-11): > 2 µM
- IC50 (SK-NEP-1): > 2 µM
- IC50 (SNU-C2B): > 2 µM
- IC50 (A498): > 2 µM
- IC50 (A704): > 2 µM
- IC50 (ATN-1): > 2 µM
- IC50 (BT-474): > 2 µM
- IC50 (Becker): > 2 µM
- IC50 (C8166): > 2 µM
- IC50 (TE-8): > 2 µM
- IC50 (TK-10): > 2 µM
- IC50 (U-266): > 2 µM
- IC50 (U-87 MG): > 2 µM
- IC50 (UACC-257): 1.2 µM
- IC50 (CGTH-W-1): > 2 µM
- IC50 (COLO-320-HSR): > 2 µM
- IC50 (COLO-684): > 2 µM
